# From patent US10111890B2, “9-aminomethyl minocycline compounds and uses thereof” (Paratek Pharmaceuticals, Inc., priority 2016, dated 2018)
# Like-named read-outs stand apart in the source and are kept apart here.
# Legend:
# [1] = Phase 1 multiple oral dose study: urine pharmacokinetics; type: in vivo, human; settings: for CL renal: human
# Experimental: Urine samples were only collected from a subset of subjects because analysis of urine PK was added by an amendment to the study protocol after the study was already underway. […] Additional parameters […] Ae0-24 were also calculated.
# [2] = Phase 3 oral omadacycline vs oral linezolid in ABSSSI: safety (adverse events, TEAEs, vital signs, ECG, laboratory); type: in vivo; settings: safety population
# Source text: An Adverse Event (AE) is any untoward, undesired, or unplanned event in the form of signs, symptoms, disease, or laboratory or physiologic observations occurring in a person given a test article or in a clinical study. […] An AE includes, but is not limited to, the following: any clinically significant worsening of a preexisting condition; an AE occurring from overdose of a test article, whether accidental or intentional; overdose is a dose greater than that specified in the protocol; an AE occurring from abuse (e.g., use for nonclinical reasons) of a test article; and an AE that has been associated with the discontinuation of the use of a test article.
# The severity (or intensity) of an AE was classified using the following criteria:
# Concerning relatedness, causality (i.e., whether there was a reasonable possibility that test article caused the event) for all AEs and SAEs was assessed.
# Safety variables include the incidence rate of AEs, change in vital signs, ECG parameters and laboratory test results obtained during the course of the study. For safety analyses, subjects were analyzed according to the treatment actually received.
# Summary tables were provided for all treatment-emergent adverse events (TEAEs). A TEAE is defined as an AE with a start date and time on or after the first dose of test article. […] Additional tabulations provide summaries by SOC and PT of subjects experiencing SAEs, severe TEAEs, TEAEs judged to be related to test article, TEAEs leading to discontinuation of test article, and TEAEs of special interest.
# The following variables were analyzed descriptively: Vital signs (systolic and diastolic BP, pulse rate, body temperature, respiratory rate), including change from Screening by visit; Clinically notable vital signs (meeting predefined criteria as specified in the SAP) by visit. Subjects with notable vital signs data were listed.
# ECG data (RR interval, PR interval, QRS interval, QTc, QTc Bazett's Correction Formula [QTcB], and QTc Fridericia's Correction Formula [QTcF]) was summarized descriptively at each scheduled evaluation, and for the overall worst post-Screening value. Changes from Screening at each visit that a 12-lead ECG was obtained was also provided. An outlier analysis was conducted based on the worst post-Screening value.
# The following variables were analyzed descriptively: Laboratory variables by visit; Change from Screening of laboratory variables by visit; and Clinically notable laboratory values (meeting predefined criteria specified in the SAP) by visit.
compound,measurement,setting,value
"CN(C)c1cc(CNCC(C)(C)C)c(O)c2c1C[C@H]1C[C@H]3[C@H](N(C)C)C(O)=C(C(N)=O)C(=O)[C@@]3(O)C(O)=C1C2=O [Omadacycline, 9-[(2,2-dimethyl-propylamino)-methyl]-minocycline]","Ae0-24, Mean (CV)","[1]; 300 mg, Day 1 (n = 2)",20.37 (8.3) mg
same,"Fe0-24, Mean (CV)","[1]; 300 mg, Day 1 (n = 2)",6.79 (8.3) %
same,"Ae0-24, Mean (CV)","[1]; 300 mg, Day 5 (n = 3)",26.14 (14.6) mg
same,"Fe0-24, Mean (CV)","[1]; 300 mg, Day 5 (n = 3)",8.71 (14.6) %
same,"Ae0-24, Mean (CV)","[1]; 450 mg, Day 1 (n = 3)",25.06 (16.8) mg
same,"Fe0-24, Mean (CV)","[1]; 450 mg, Day 1 (n = 3)",5.57 (16.8) %
same,"Ae0-24, Mean (CV)","[1]; 450 mg, Day 5 (n = 5)",30.81 (33.0) mg
same,"Fe0-24, Mean (CV)","[1]; 450 mg, Day 5 (n = 5)",6.85 (33.0) %
same,"Ae0-24, Mean (CV)","[1]; 600 mg, Day 1 (n = 1)",31.96 mg
same,"Fe0-24, Mean (CV)","[1]; 600 mg, Day 1 (n = 1)",5.33%
same,"Ae0-24, Mean (CV)","[1]; 600 mg, Day 5 (n = 4)",51.82 (14.8) mg
same,"Fe0-24, Mean (CV)","[1]; 600 mg, Day 5 (n = 4)",8.64 (14.8) %
same,CL renal,"[1]; in vivo, 300 mg, Day 1 (n = 2), read-out: CLr, Mean (CV) (converted)",50.2 mL/min
same,CL renal,"[1]; in vivo, 300 mg, Day 5 (n = 3), read-out: CLr, Mean (CV) (converted)",54.7 mL/min
same,CL renal,"[1]; in vivo, 450 mg, Day 1 (n = 3), read-out: CLr, Mean (CV) (converted)",46.7 mL/min
same,CL renal,"[1]; in vivo, 450 mg, Day 5 (n = 5), read-out: CLr, Mean (CV) (converted)",39.7 mL/min
same,CL renal,"[1]; in vivo, 600 mg, Day 1 (n = 1), read-out: CLr, Mean (CV) (converted)",69.5 mL/min
same,CL renal,"[1]; in vivo, 600 mg, Day 5 (n = 4), read-out: CLr, Mean (CV) (converted)",50.8 mL/min
same,CL renal,"[1]; urine, oral, all omadacycline dose groups, Day 1, read-out: Renal clearance (CLr)",46.7 to 70 mL/min
same,CL renal,"[1]; urine, oral, all omadacycline dose groups, Day 5, read-out: Renal clearance (CLr)",40 to 55 mL/min
same,Subjects who died,[2],0 n (%)
same,Subjects with at Least One Adverse Events (AE),[2],201 (54.6) n (%)
same,Subjects with at Least One Drug-Related Serious TEAE,[2],0 n (%)
same,Subjects with at Least One Drug-Related TEAE,[2],139 (37.8) n (%)
same,Subjects with at Least One Serious TEAE,[2],5 (1.4) n (%)
same,Subjects with at Least One Serious TEAE leading to Death,[2],0 n (%)
same,Subjects with at Least One Serious TEAEs leading to premature discontinuation of test article,[2],3 (0.8) n (%)
same,Subjects with at Least One Severe TEAE,[2],6 (1.6) n (%)
same,Subjects with at Least One TEAE Leading to Study Drug Discontinuation,[2],6 (1.6) n (%)
same,Subjects with at Least One TEAE leading to dose interruption,[2],0 n (%)
same,Subjects with at Least One TEAE leading to premature discontinuation of study,[2],3 (0.8) n (%)
same,Subjects with at Least One TEAE leading to premature discontinuation of test article,[2],6 (1.6) n (%)
same,TEAE leading to study drug discontinuation: Cellulitis,[2],1 (0.3) n (%)
same,TEAE leading to study drug discontinuation: Gastrointestinal Disorders (SOC),[2],1 (0.3) n (%)
same,TEAE leading to study drug discontinuation: Haematemesis,[2],1 (0.3) n (%)
same,TEAE leading to study drug discontinuation: Infections And Infestations (SOC),[2],4 (1.1) n (%)
same,TEAE leading to study drug discontinuation: Nausea,[2],1 (0.3) n (%)
same,TEAE leading to study drug discontinuation: Pregnancy,[2],1 (0.3) n (%)
same,"TEAE leading to study drug discontinuation: Pregnancy, Puerperium And Perinatal Conditions (SOC)",[2],1 (0.3) n (%)
same,TEAE leading to study drug discontinuation: Staphylococcal Bacteraemia,[2],1 (0.3) n (%)
same,TEAE leading to study drug discontinuation: Subcutaneous Abscess,[2],1 (0.3) n (%)
same,TEAE leading to study drug discontinuation: Vomiting,[2],1 (0.3) n (%)
same,TEAE leading to study drug discontinuation: Wound Infection,[2],1 (0.3) n (%)
same,TEAE: Alanine Aminotransferase Increased,[2],19 (5.2) n (%)
same,TEAE: Aspartate Aminotransferase Increased,[2],17 (4.6) n (%)
same,TEAE: Cellulitis,[2],12 (3.3) n (%)
same,TEAE: Headache,[2],13 (3.5) n (%)
same,TEAE: Wound Infection,[2],22 (6.0) n (%)
same,Total Number of AEs,[2],468
same,Total Number of TEAEs,[2],448
same,Subjects with at Least One TEAE,[2]; AE overview,197 (53.5) n (%)
same,TEAE: Abdominal Pain Upper,[2]; all severities,10 (2.7) n (%)
same,TEAE: Diarrhea,[2]; all severities,15 (4.1) n (%)
same,TEAE: Nausea,[2]; all severities,111 (30.2) n (%)
same,TEAE: Vomiting,[2]; all severities,62 (16.8) n (%)
same,"Subjects with at Least One TEAE, Mild",[2]; highest severity Mild,120 (32.6) n (%)
same,"TEAE: Abdominal Pain Upper, Mild",[2]; highest severity Mild,9 (2.4) n (%)
same,"TEAE: Abdominal Pain, Mild",[2]; highest severity Mild,3 (0.8) n (%)
same,"TEAE: Diarrhea, Mild",[2]; highest severity Mild,13 (3.5) n (%)
same,"TEAE: Gastrointestinal Disorders (SOC), Mild",[2]; highest severity Mild,105 (28.5) n (%)
same,"TEAE: Nausea, Mild",[2]; highest severity Mild,83 (22.6) n (%)
same,"TEAE: Vomiting, Mild",[2]; highest severity Mild,44 (12.0) n (%)
same,"Subjects with at Least One TEAE, Moderate",[2]; highest severity Moderate,71 (19.3) n (%)
same,"TEAE: Abdominal Pain Upper, Moderate",[2]; highest severity Moderate,1 (0.3) n (%)
same,"TEAE: Abdominal Pain, Moderate",[2]; highest severity Moderate,3 (0.8) n (%)
same,"TEAE: Diarrhea, Moderate",[2]; highest severity Moderate,2 (0.5) n (%)
same,"TEAE: Gastrointestinal Disorders (SOC), Moderate",[2]; highest severity Moderate,39 (10.6) n (%)
same,"TEAE: Nausea, Moderate",[2]; highest severity Moderate,28 (7.6) n (%)
same,"TEAE: Vomiting, Moderate",[2]; highest severity Moderate,18 (4.9) n (%)
same,"Subjects with at Least One TEAE, Severe",[2]; highest severity Severe,6 (1.6) n (%)
same,"TEAE: Abdominal Pain Upper, Severe",[2]; highest severity Severe,0 n (%)
same,"TEAE: Abdominal Pain, Severe",[2]; highest severity Severe,0 n (%)
same,"TEAE: Diarrhea, Severe",[2]; highest severity Severe,0 n (%)
same,"TEAE: Gastrointestinal Disorders (SOC), Severe",[2]; highest severity Severe,0 n (%)
same,"TEAE: Nausea, Severe",[2]; highest severity Severe,0 n (%)
same,"TEAE: Vomiting, Severe",[2]; highest severity Severe,0 n (%)
same,Subjects with at Least One TEAE,[2]; most frequent (≥2%) TEAEs table,197 (53.5) n (%)
